Laboratory results reported in patent publication US8394789B2, “(Dihydro)pyrrolo[2,1-α]isoquinolines” (MSD Oss B.V., priority 2008, dated 2013).

molecular target: T1, human FSH receptor (Homo sapiens, UniProt P23945); assay: hFSHRago (CHO luc): agonistic activity at the human FSH receptor expressed in CHO cells, CRE-luciferase reporter; assay type: cell-based; conditions: CHO cells stably transfected with human FSH receptor and CRE/luciferase reporter; 4 hours of incubation
T1 construct: expressed in transfected cells
T1 sequence (P23945 18-695): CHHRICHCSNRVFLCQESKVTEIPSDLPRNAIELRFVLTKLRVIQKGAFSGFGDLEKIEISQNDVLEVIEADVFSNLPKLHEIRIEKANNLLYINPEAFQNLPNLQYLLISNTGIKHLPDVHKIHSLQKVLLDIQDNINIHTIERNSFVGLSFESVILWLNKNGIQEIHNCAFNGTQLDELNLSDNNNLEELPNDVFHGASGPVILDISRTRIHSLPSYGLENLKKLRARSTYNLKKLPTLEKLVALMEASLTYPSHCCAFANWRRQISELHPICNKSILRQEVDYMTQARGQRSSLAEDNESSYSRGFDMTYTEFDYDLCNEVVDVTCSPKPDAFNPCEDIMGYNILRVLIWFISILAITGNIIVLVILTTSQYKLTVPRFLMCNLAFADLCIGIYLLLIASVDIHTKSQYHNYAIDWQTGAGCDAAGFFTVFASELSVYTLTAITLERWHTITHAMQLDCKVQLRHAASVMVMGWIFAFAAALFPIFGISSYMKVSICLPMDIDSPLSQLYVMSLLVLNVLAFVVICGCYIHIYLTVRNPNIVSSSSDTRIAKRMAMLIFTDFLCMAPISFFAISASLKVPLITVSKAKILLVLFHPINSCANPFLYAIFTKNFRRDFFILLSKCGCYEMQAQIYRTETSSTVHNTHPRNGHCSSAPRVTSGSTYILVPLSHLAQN

EC50 [nM]	Structure (SMILES)
241	COc1cc2c(cc1OC(C)C)-c1c(-c3cccs3)cc(C(=O)N(C)N(C)C)n1CC2 [Example 31, 9-Isopropoxy-8-methoxy-1-thiophen-2-yl-5,6-dihydro-pyrrolo[2,1-α]isoquinoline-3-carboxylic acid trimethylhydrazide]
55.2	COc1cc2c(cc1OC(C)C)-c1c(-c3cccs3)cc(C(=O)N(C)N3CCCC3)n1CC2 [Example 32, 9-Isopropoxy-8-methoxy-1-thiophen-2-yl-5,6-dihydro-pyrrolo[2,1-α]isoquinoline-3-carboxylic acid methyl-pyrrolidin-1-yl-amide]
252	COc1cc2c(cc1OC(C)C)-c1c(-c3cccs3)cc(C(=O)N[C@@H]3CCCN(C(=O)C4CCC4)C3)n1CC2 [Example 33c, 9-Isopropoxy-8-methoxy-1-thiophen-2-yl-5,6-dihydro-pyrrolo[2,1-α]isoquinoline-3-carboxylic acid ((R)-1-cyclobutanecarbonyl-piperidin-3-yl)-amide]
279	CCN(C(=O)c1cc(-c2cccs2)c2n1CCc1cc(OC)c(OC(C)C)cc1-2)[C@@H]1CCCN(C(=O)C2CCC2)C1 [Example 33d, 9-Isopropoxy-8-methoxy-1-thiophen-2-yl-5,6-dihydro-pyrrolo[2,1-α]isoquinoline-3-carboxylic acid ((R)-1-cyclobutanecarbonyl-piperidin-3-yl)-ethyl-amide]
251	COc1cc2c(cc1OC(C)C)-c1c(-c3cccs3)cc(C(=O)N[C@@H]3CCCN(C(C)=O)C3)n1CC2 [Example 34c, 9-Isopropoxy-8-methoxy-1-thiophen-2-yl-5,6-dihydro-pyrrolo[2,1-α]isoquinoline-3-carboxylic acid ((R)-1-acetyl-piperidin-3-yl)-amide]
496	COc1cc2c(cc1OC(C)C)-c1c(-c3cccs3)cc(C(=O)N(C)[C@@H]3CCCN(C(C)=O)C3)n1CC2 [Example 34d, 9-Isopropoxy-8-methoxy-1-thiophen-2-yl-5,6-dihydro-pyrrolo[2,1-α]isoquinoline-3-carboxylic acid ((R)-1-acetyl-piperidin-3-yl)-methyl-amide]

Second part, the molecule before the results:

Structure (SMILES)	EC50 [nM]
COc1cc2c(cc1OC(C)C)-c1c(-c3cccs3)cc(C(=O)N3C[C@H]4C[C@@H](N(C)C(C)=O)C[C@H]4C3)n1CC2 [Example 26, N-[2-(9-Isopropoxy-8-methoxy-1-thiophen-2-yl-5,6-dihydro-pyrrolo[2,1-α]isoquinoline-3-carbonyl)-octahydro-cyclopenta[c]pyrrol-5-yl]-N-methyl-acetamide]	173
CCC1CCCN1C(=O)c1cc(-c2cccs2)c2n1CCc1cc(OC)c(OC(C)C)cc1-2 (stereo not drawn) [Example 27, (2-Ethyl-pyrrolidin-1-yl)-(9-isopropoxy-8-methoxy-1-thiophen-2-yl-5,6-dihydro-pyrrolo[2,1-α]isoquinolin-3-yl)-methanone]	16.2
COc1cc2c(cc1OC(C)C)-c1c(-c3cccs3)cc(C(=O)N3CCCC3c3cccc(F)c3)n1CC2 (stereo not drawn) [Example 28, [2-(3-Fluoro-phenyl)-pyrrolidin-1-yl]-(9-isopropoxy-8-methoxy-1-thiophen-2-yl-5,6-dihydro-pyrrolo[2,1-α]isoquinolin-3-yl)-methanone]	752
COc1cc2c(cc1OC(C)C)-c1c(-c3cccs3)cc(C(=O)N3CCCC3c3cccnc3)n1CC2 (stereo not drawn) [Example 29, (9-Isopropoxy-8-methoxy-1-thiophen-2-yl-5,6-dihydro-pyrrolo[2,1-α]isoquinolin-3-yl)-(2-pyridin-3-yl-pyrrolidin-1-yl)-methanone]	624
COc1cc2c(cc1OC(C)C)-c1c(-c3ccccn3)cc(C(=O)N3CCCN(C(=O)c4ccccn4)CC3)n1CC2 [Example 35, (9-Isopropoxy-8-methoxy-1-pyridin-2-yl-5,6-dihydro-pyrrolo[2,1-α]isoquinolin-3-yl)-[4-(pyridine-2-carbonyl)-[1,4]diazepan-1-yl]-methanone; trifluoro acetic acid]	244
